The results in this text go back to patent EP4707284A1, “HETEROCYCLIC COMPOUND AND USE THEREOF” (Otsuka Pharmaceutical Co., Ltd., priority 2023, dated 2024).

Series [1] is classed as physicochemical. The note with it: 37°C, 60 minutes; for Concentration of brexpiprazole formed / Concentration of evaluation compound decreased: Tris-hydrochloric acid buffer (pH 7.5) 50 mmol/L, magnesium chloride 5 mmol/L, evaluation compound 1 µmol/L, average of duplicate; for stability in the buffer / conversion to brexpiprazole (in words): Tris-hydrochloric acid buffer (pH 7.5). In short, it runs like this: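 Conversion of compounds to brexpiprazole measured in buffer at 37°C, in duplicate: compound added after 3 min pre-incubation of reaction solution, and reaction stopped at 0 or 60 min with acetonitrile/isopropanol (4:1) containing internal standards. Quantified against calibration samples at 0.01, 0.1 and 1 µmol/L.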

The nature of series [2]: in vitro. The note with it: human; 300 µmol/L, about 24 hours, PMA-differentiated HL-60 cells, LDH activity; no-treatment group 0%, cell lysis buffer-treated group 100%; read-out: cytotoxicity (%) Evaluation compound results. It is filed as cell-based, human. As for the experimental part:
An HL-60 cell line (human acute promyelocytic leukemia cells) was successively cultured in RPMI 1640 containing 20% fetal bovine serum (FBS) at 37°C in 95% atmosphere/5% CO2. Before evaluation, the cells were pre-cultured for about 72 hours in the presence of 10 nM phorbol 12-myristate 13-acetate (PMA) to induce macrophage-like differentiation.
Evaluation compounds were dissolved in DMSO to obtain 30 mmol/L solutions (or suspensions). Each DMSO solution was diluted 100-fold with RPMI 1640 containing 2% FBS (final concentration of the compound: 300 µmol/L) to obtain a treatment solution. The culture supernatant of the differentiated HL-60 cells was removed, and each treatment solution was added and cultured for about 24 hours, followed by cytotoxicity evaluation.
The activity of lactate dehydrogenase (LDH) was measured in the treatment solutions exposed to the cells for about 24 hours by using a commercial kit (Cytotoxicity LDH Assay Kit-WST, Dojindo Laboratories) and a plate reader (Tecan Infinite M1000). The obtained measurement values were used to calculate cytotoxicity (%) as comparison values for each evaluation compound-treated group, with the no-treatment group taken as 0% and the cell lysis buffer-treated group taken as 100%. The test was conducted in triplicate in three wells each, and the average values were used as adopted values.

With `CCOP(=O)([O-])OC[N+]1(CCCCOc2ccc3ccc(=O)[nH]c3c2)CCN(c2cccc3sccc23)CC1` [EX 3, (4-(benzo[b]thiophen-4-yl)-1-(4-((2-oxo-1,2-dihydroquinolin-7-yl)oxy)butyl)piperazin-1-ium-1-yl)methyl ethyl phosphate], in series [1], the “Concentration of brexpiprazole formed” value turned out to be 0.00 µM and the “Concentration of evaluation compound decreased” value is 0.01 µM. In addition, the cytotoxicity at 24 h, 300 µM in series [2] was -7%.

Turning to `CC(C)(C)OP(=O)([O-])OC[N+]1(CCCCOc2ccc3ccc(=O)[nH]c3c2)CCN(c2cccc3sccc23)CC1` [EX 4, (4-(benzo[b]thiophen-4-yl)-1-(4-((2-oxo-1,2-dihydroquinolin-7-yl)oxy)butyl)piperazin-1-ium-1-yl)methyl tert-butyl phosphate], in series [1], the “Concentration of brexpiprazole formed” value is 0.00 µM and the “Concentration of evaluation compound decreased” value is 0.02 µM. Moreover, the cytotoxicity at 24 h, 300 µM in series [2] is -5%.

With `CC(C)OP(=O)([O-])OC[N+]1(CCCCOc2ccc3ccc(=O)[nH]c3c2)CCN(c2cccc3sccc23)CC1` [EX 5, (4-(benzo[b]thiophen-4-yl)-1-(4-((2-oxo-1,2-dihydroquinolin-7-yl)oxy)butyl)piperazin-1-ium-1-yl)methyl isopropyl phosphate], in series [1], the “Concentration of brexpiprazole formed” value is recorded as 0.00 µM and the “Concentration of evaluation compound decreased” value worked out at 0.07 µM. The cytotoxicity at 24 h, 300 µM in series [2] is -4%.

Take `O=c1ccc2ccc(OCCCC[N+]3(COP(=O)([O-])OCCO)CCN(c4cccc5sccc45)CC3)cc2[nH]1` [EX 9, (4-(benzo[b]thiophen-4-yl)-1-(4-((2-oxo-1,2-dihydroquinolin-7-yl)oxy)butyl)piperazin-1-ium-1-yl)methyl (2-hydroxyethyl)phosphate]: in series [2], the cytotoxicity at 24 h, 300 µM was -2%.

On to `CCOC(=O)CCCCCOC(=O)OCOP(=O)([O-])OC[N+]1(CCCCOc2ccc3ccc(=O)[nH]c3c2)CCN(c2cccc3sccc23)CC1` [EX 144], for which, in series [1], the “Concentration of brexpiprazole formed” value was 0.00 µM and the “Concentration of evaluation compound decreased” value is on record as 0.12 µM.

`O=C(O)CCCCCOC(=O)OCOP(=O)([O-])OC[N+]1(CCCCOc2ccc3ccc(=O)[nH]c3c2)CCN(c2cccc3sccc23)CC1` [EX 145]: in series [1], the “Concentration of brexpiprazole formed” value is given as 0.00 µM and the “Concentration of evaluation compound decreased” value came to 0.03 µM.

As to `O=C(OCCCN1CCOCC1)OCOP(=O)([O-])OC[N+]1(CCCCOc2ccc3ccc(=O)[nH]c3c2)CCN(c2cccc3sccc23)CC1` [EX 146], in series [1], the “Concentration of brexpiprazole formed” value stood at 0.00 µM and the “Concentration of evaluation compound decreased” value is on record as 0.11 µM.

In the case of `CCOC(=O)C1CCN(CCOP(=O)([O-])OC[N+]2(CCCCOc3ccc4ccc(=O)[nH]c4c3)CCN(c3cccc4sccc34)CC2)CC1` [EX 147], in series [1], the “Concentration of brexpiprazole formed” value is recorded as 0.00 µM and the “Concentration of evaluation compound decreased” value is reported as 0.07 µM.

In the case of `CC(C)(C)C(=O)OP(=O)([O-])OC[N+]1(CCCCOc2ccc3ccc(=O)[nH]c3c2)CCN(c2cccc3sccc23)CC1` [EX 150], in series [1], the “Concentration of brexpiprazole formed” value is 0.00 µM and the “Concentration of evaluation compound decreased” value was 0.11 µM.

For the molecule `CCNP(=O)([O-])OC[N+]1(CCCCOc2ccc3ccc(=O)[nH]c3c2)CCN(c2cccc3sccc23)CC1` [EX 151], in series [1], the “Concentration of brexpiprazole formed” value is recorded as 0.00 µM and the “Concentration of evaluation compound decreased” value is listed as -0.01 µM.

On to `COCCNP(=O)([O-])OC[N+]1(CCCCOc2ccc3ccc(=O)[nH]c3c2)CCN(c2cccc3sccc23)CC1` [EX 152], for which, in series [1], the “Concentration of brexpiprazole formed” value came out at 0.00 µM and the “Concentration of evaluation compound decreased” value was found to be 0.01 µM.

As to `CCOC(=O)CNP(=O)([O-])OC[N+]1(CCCCOc2ccc3ccc(=O)[nH]c3c2)CCN(c2cccc3sccc23)CC1` [EX 154], in series [1], the “Concentration of brexpiprazole formed” value is given as 0.00 µM and the “Concentration of evaluation compound decreased” value is listed as 0.02 µM.

On to `CC(C)(C)OC(=O)CNP(=O)([O-])OC[N+]1(CCCCOc2ccc3ccc(=O)[nH]c3c2)CCN(c2cccc3sccc23)CC1` [EX 155], for which, in series [1], the “Concentration of brexpiprazole formed” value is recorded as 0.00 µM and the “Concentration of evaluation compound decreased” value turned out to be 0.16 µM.

`CCOC(=O)[C@H](C)NP(=O)([O-])OC[N+]1(CCCCOc2ccc3ccc(=O)[nH]c3c2)CCN(c2cccc3sccc23)CC1` [EX 156]: in series [1], the “Concentration of brexpiprazole formed” value is recorded as 0.00 µM and the “Concentration of evaluation compound decreased” value came out at 0.17 µM.

For `C[C@H](NP(=O)([O-])OC[N+]1(CCCCOc2ccc3ccc(=O)[nH]c3c2)CCN(c2cccc3sccc23)CC1)C(=O)OC(C)(C)C` [EX 157], in series [1], the “Concentration of brexpiprazole formed” value came to 0.00 µM and the “Concentration of evaluation compound decreased” value is given as 0.08 µM.

Consider `C[C@H](NP(=O)([O-])OC[N+]1(CCCCOc2ccc3ccc(=O)[nH]c3c2)CCN(c2cccc3sccc23)CC1)C(N)=O` [EX 158], for which, in series [1], the “Concentration of brexpiprazole formed” value worked out at 0.00 µM and the “Concentration of evaluation compound decreased” value was found to be 0.07 µM.

With `CC(C)OC(=O)[C@H](C)NP(=O)([O-])OC[N+]1(CCCCOc2ccc3ccc(=O)[nH]c3c2)CCN(c2cccc3sccc23)CC1` [EX 159], in series [1], the “Concentration of brexpiprazole formed” value is 0.00 µM and the “Concentration of evaluation compound decreased” value amounted to 0.06 µM.

Consider `O=C(OCOP(=O)([O-])OC[N+]1(CCCCOc2ccc3ccc(=O)[nH]c3c2)CCN(c2cccc3sccc23)CC1)N1CCOCC1` [EX 160], for which, in series [1], the “Concentration of brexpiprazole formed” value is 0.00 µM and the “Concentration of evaluation compound decreased” value was -0.01 µM.

On to `CCC(=O)OC[N+]1(CCCCOc2ccc3ccc(=O)[nH]c3c2)CCN(c2cccc3sccc23)CC1.[I-]` [REX 5, 4-(Benzo[b]thiophen-4-yl)-1-(4-((2-oxo-1,2-dihydroquinolin-7-yl)oxy)butyl)-1-((propionyloxy)methyl)piperazin-1-ium iodide, reference compound], for which, in series [1], the “Concentration of brexpiprazole formed” value amounted to 0.26 µM, the “Concentration of evaluation compound decreased” value came to 0.20 µM and the “stability in the buffer / conversion to brexpiprazole (in words)” value (shortened to “stability in the buffer / conversion”) was “clearly degraded to brexpiprazole”.

`CCCCCC(=O)OC[N+]1(CCCCOc2ccc3ccc(=O)[nH]c3c2)CCN(c2cccc3sccc23)CC1.[I-]` [REX 6, 4-(Benzo[b]thiophen-4-yl)-1-((hexanoyloxy)methyl)-1-(4-((2-oxo-1,2-dihydroquinolin-7-yl)oxy)butyl)piperazin-1-ium iodide, reference compound]: in series [1], the “Concentration of brexpiprazole formed” value is 0.21 µM, the “Concentration of evaluation compound decreased” value is given as 0.22 µM and the “stability in the buffer / conversion” value was “clearly degraded to brexpiprazole”.

Regarding `CCCCCCOC(=O)OC[N+]1(CCCCOc2ccc3ccc(=O)[nH]c3c2)CCN(c2cccc3sccc23)CC1.[I-]` [REX 7, 4-(Benzo[b]thiophen-4-yl)-1-((((hexyloxy)carbonyl)oxy)methyl)-1-(4-((2-oxo-1,2-dihydroquinolin-7-yl)oxy)butyl)piperazin-1-ium iodide, reference compound], in series [1], the “Concentration of brexpiprazole formed” value came to 0.24 µM, the “Concentration of evaluation compound decreased” value came to 0.27 µM and the “stability in the buffer / conversion” value is on record as “clearly degraded to brexpiprazole”.
